# Assay results from publication PMC12320245 (International Journal of Biological Sciences, 2025).
# Tests used:
# [1] = system: PDE4 in primary hippocampal neurons; assay: Scratch injury: PDE4 expression (immunocytochemistry and Western blot); format: cell-based, rat; conditions: scratch-AMX vs scratch-vehicle, 24 hours after scratch
# Procedure: Primary hippocampal neurons were obtained from embryonic day 18 (E18) Sprague-Dawley rat embryos. Pregnant rats were anesthetized using 2-3% isoflurane in a gas mixture of 70% nitrous oxide and 30% oxygen. Following euthanasia, the hippocampi were carefully dissected, minced, and enzymatically dissociated using TrypLE Express (Gibco, NY, USA) for 10 minutes at 37°C. The tissue was further mechanically dissociated using fire-polished glass pipettes, and the resulting cell suspension was filtered through a 70 μm cell strainer to remove debris. Neurons were seeded at a density of 3 × 10^5 cells per well in 24-well plates pre-coated with poly-L-lysine (Sigma-Aldrich, Saint Louis, MO, USA). Cells were maintained in neurobasal medium supplemented with B-27 (Thermo Fisher Scientific, Waltham, MA, USA), GlutaMAX (Gibco), and penicillin-streptomycin. […]
# A scratch injury model was used to mimic TBI in vitro. […] After the treatment period, neuronal damage and recovery were assessed using appropriate evaluation methods.
# Twenty-four hours after the scratch injury, cells were lysed using RIPA buffer (IBS-BR002, iNtRON, Republic of Korea) supplemented with protease and phosphatase inhibitors (Sigma, USA). […] Protein detection was performed using a chemiluminescence bioimaging device (Amersham Imager 680, Cytiva, MA, USA), and the results were analyzed to determine protein expression levels. […]
# BV2 cells = conditions: NF-κB/STAT3 downregulation; cited from earlier work
# IκB kinase ε (IKK-ε) = system: IκB kinase ε (IKK-ε); design: method as in PMID 23396208; conditions: cited from earlier work
# astrocytes = assay: Lysosomal zinc (FluoZin-3 with LysoTracker); format: cell-based; conditions: 10 μM AMX for 30 minutes
# hippocampus of TBI rats = assay: Controlled cortical impact TBI: hippocampal immunofluorescence; format: in vivo, rat
# Procedure: This study used male Sprague-Dawley rats weighing 300-350 g and aged 8 weeks, obtained from DBL Co. (Chungcheongbuk-do, Republic of Korea). The rats were housed in a controlled environment with a temperature of 20 ± 2 °C, a relative humidity of 55 ± 5%, and a 12-hour light/dark cycle. They were provided ad libitum access to food and water. To minimize stress associated with transportation, animals underwent a one-week acclimatization period before the start of the experiments. All experimental procedures were conducted in compliance with the guidelines of the National Institutes of Health for the care and use of laboratory animals and were approved by the Hallym University Institutional Animal Care and Use Committee (protocol # Hallym 2022-23, approved on July 15, 2022). This manuscript follows the principles outlined in the Animal research: reporting in vivo experiments (ARRIVE) guidelines.
# A controlled cortical impact (CCI) model was used to induce TBI in rats. Animals were anesthetized with 1-1.5% isoflurane in a 30:70 oxygen-to-nitrous oxide mixture and securely positioned in a stereotaxic frame. A 3 mm craniotomy was performed using a portable drill at a site 2.8 mm lateral to the midline and 3.0 mm posterior to Bregma. TBI was induced using an Impact One™ Stereotaxic Impactor (Leica Biosystems) equipped with a 3 mm flat-tip, set to deliver an impact at a velocity of 5 m/s and a depth of 3 mm. Throughout the procedure, body temperature was maintained at 36-37.5°C using a homeothermic blanket system to prevent hypothermia. […] At designated time points (3 hours, 24 hours, or 2 weeks post-injury), animals were euthanized via transcardial perfusion with saline, followed by 4% paraformaldehyde (PFA). Brains were post-fixed in 4% PFA for 1 hour, cryoprotected in 30% sucrose, and sectioned at a 30 μm thickness using a cryostat microtome (CM1850; Leica, Wetzlar, Germany). Brain sections were stored in cryoprotectant solution at 4°C until further analysis.
# Brain tissues were initially treated with 1.2% hydrogen peroxide at room temperature for 15 minutes to block endogenous peroxidase activity. Following this step, the tissues were washed three times in PBS for 10 minutes each. The tissues and fixed primary neurons were incubated overnight at 4°C with primary antibodies diluted in antibody diluent. […]. After incubation with primary antibodies, tissues were washed in PBS and incubated for 2 hours at room temperature on a shaker with fluorescent-conjugated secondary antibodies (1:250, Invitrogen). All samples were counterstained with DAPI (1:1000, Invitrogen) to visualize cell nuclei. The stained tissues were mounted on gelatin-coated slides, air-dried, and coverslipped using DPX mounting medium. To evaluate the fluorescent signals of labeled proteins, observations were performed using a Zeiss LSM 710 confocal microscope (Carl Zeiss) with sequential scanning mode for DAPI and Alexa 488 and 594. Stacks of images (1024 × 1024 pixels) from consecutive slices of 0.5-0.8 μm in thickness were obtained by averaging fifteen scans per slice, processed using ZEN 2 (blue edition, Carl Zeiss).
# [2] = hippocampal regions, 24 hours after TBI
# [3] = hippocampus, 24 hours after TBI
compound,measurement,setting,value
"CC(C)c1ccc2oc3nc(N)c(C(=O)O)cc3c(=O)c2c1 [AMX, amlexanox]",PDE4 levels,[1],significantly reduced
same,LPS-induced microglial activation,BV2 cells,attenuated LPS-induced microglial activation
same,inhibition of IKK-ε,IκB kinase ε (IKK-ε),dual inhibitor
same,lysosomal zinc (FluoZin-3 fluorescence),astrocytes,significant increase in zinc fluorescence within lysosomes
same,hippocampal PDE4 expression (immunofluorescence),hippocampus of TBI rats; 3 hours post-TBI,markedly reduced PDE4 expression
same,4HNE staining (lipid peroxidation),hippocampus of TBI rats; [2],significantly reduced 4HNE staining
same,CD86 staining (M1 polarization),hippocampus of TBI rats; [2],decreased Iba-1 and CD86 staining
same,Iba-1 staining (microglial activation),hippocampus of TBI rats; [2],decreased Iba-1 and CD86 staining
same,p-p38 levels (immunofluorescence),"hippocampus of TBI rats; hippocampal regions, 24 hours post-TBI, vs TBI-vehicle",significantly reduced p-p38 levels
same,C3 intensity,hippocampus of TBI rats; [3],lower GFAP and C3 intensity
same,GFAP intensity (astrocytic activation),hippocampus of TBI rats; [3],lower GFAP and C3 intensity
